pIC50: −log10 of the molar value.

IRAK4 kinase, sequence (Q9NWZ3 whole entry): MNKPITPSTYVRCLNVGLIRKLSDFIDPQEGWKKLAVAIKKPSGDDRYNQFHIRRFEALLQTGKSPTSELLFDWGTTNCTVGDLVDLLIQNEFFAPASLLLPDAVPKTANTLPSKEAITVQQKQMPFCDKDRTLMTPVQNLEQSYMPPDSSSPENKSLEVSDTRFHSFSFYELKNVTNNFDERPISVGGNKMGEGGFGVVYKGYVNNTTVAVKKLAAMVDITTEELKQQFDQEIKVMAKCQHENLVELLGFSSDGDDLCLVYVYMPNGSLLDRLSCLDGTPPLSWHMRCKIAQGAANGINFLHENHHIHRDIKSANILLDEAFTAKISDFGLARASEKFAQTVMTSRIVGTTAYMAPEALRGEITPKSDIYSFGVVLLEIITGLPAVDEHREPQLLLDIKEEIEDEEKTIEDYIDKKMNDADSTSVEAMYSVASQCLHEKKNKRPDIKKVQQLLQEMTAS
IRAK4 protein in THP-1 cells, sequence (Q9NWZ3 whole entry): as above

One assay concerns the target IRAK4 kinase (Homo sapiens (Human), UniProt Q9NWZ3). Kind of assay: IRAK4 kinase activity test (KinEASE-STK S1 HTRF kit). Format: biochemical. As to conditions: 2.5 nM IRAK4 kinase, 7 μM ATP, 37° C. 120 min. The method, then:
Then 2.5 nM 1RAK4 kinase (Carna), 1 μM biotinylated polypeptide substrate (Cisbio) and 7 μM adenosine triphosphate (Sigma-Aldrich) were sequentially added, and the mixtures were incubated at 37° C. for 120 min. Subsequently, an anti-phosphoserine/threonine antibody (Cisbio) conjugated with a europium element compound and conjugated modified XL665 streptavidin (Cisbio) were added to the reaction systems to stop the reactions. After 1 h of incubation at room temperature, the fluorescence intensity of each well was measured at the excitation wavelength of 337 nm and the emission wavelengths of 620 nm and 665 nm with a microplate reader EnVision (PerkinElmer) in the HTRF mode, and Ratio values were calculated using the formula Ratio=(665 nm/620 nm)×[…]. The inhibition rate of the compound at each concentration was calculated by comparing the fluorescence intensity ratio with that of the control group. Then a non-linear curve fitting of logarithmic concentration-inhibition rate was performed using GraphPad Prism 7, and the IC50 value of the compound was obtained.
Background: TR-FRET usually uses a lanthanide donor and a delayed reading to cut background.
A word on the pIC50: it is −log10 of the IC50, conventionally taken in molar units. A low value points to a large IC50. In turn, `O=C1CCN(c2cc(C(=O)N3CCC4(CCC(CN5CCC(n6cc(NC(=O)c7cnn8ccc(N9CCOCC9)nc78)c(C(F)F)n6)CC5)CC4)CC3)ccc2OC(F)(F)F)C(=O)N1` [Example 52, N-(3-(difluoromethyl)-1-(1-((3-(3-(2,4-dioxotetrahydropyrimidin-1(2H)-yl)-4-(trifluoromethoxy)benzoyl)-3-azaspiro[5.5]undecan-9-yl)methyl)piperidin-4-yl)-1H-pyrazol-4-yl)-5-morpholinopyrazolo[1,5-a]pyrimidine-3-carboxamide] showed a pIC50 of 7.62. `O=C1CCN(c2cc(N3CCN(CCCCN4CCC(n5cc(NC(=O)c6cnn7ccc(N8C[C@H]9C[C@@H]8CO9)nc67)c(C(F)F)n5)CC4)CC3)ccc2Cl)C(=O)N1` [Example 51, 5-((1R,4R)-2-oxa-5-azabicyclo[2.2.1]heptan-5-yl)-N-(1-(1-(4-(4-(4-chloro-3-(2,4-dioxotetrahydropyrimidin-1(2H)-yl)phenyl)piperazin-1-yl)butyl)piperidin-4-yl)-3-(difluoromethyl)-1H-pyrazol-4-yl)pyrazolo[1,5-a]pyrimidine-3-carboxamide] gave a pIC50 of 7.57. The same measure, in the same setting: the figure for `O=C1CCN(c2cc(C(=O)N3CCC4(CCN(CC5CCN(c6ccc(NC(=O)c7cnn8ccc(N9C[C@H]%10C[C@@H]9CO%10)nc78)c(Cl)c6)CC5)CC4)CC3)ccc2Cl)C(=O)N1` [Example 6, 5-((1R,4R)-2-oxa-5-azabicyclo[2.2.1]heptan-5-yl)-N-(2-chloro-4-(4-((9-(4-chloro-3-(2,4-dioxotetrahydropyrimidin-1(2H)-yl)benzoyl)-3,9-diazaspiro[5.5]undecan-3-yl)methyl)piperidin-1-yl)phenyl)pyrazolo[1,5-a]pyrimidine-3-carboxamide] is 6.28; for `O=C1CCC(c2cc(C(=O)N3CCN(CCCC(=O)N4CCC(n5cc(NC(=O)c6cnn7ccc(N8CCOCC8)nc67)c(C(F)F)n5)CC4)CC3)ccc2F)C(=O)N1` (stereo not shown) [Example 62, N-(3-(difluoromethyl)-1-(1-(4-(4-(3-(2,6-dioxopiperidin-3-yl)-4-fluorobenzoyl)piperazin-1-yl)butanoyl)piperidin-4-yl)-1H-pyrazol-4-yl)-5-morpholinopyrazolo[1,5-a]pyrimidine-3-carboxamide] it is 7.54.

Compound `O=C1CCN(c2cc(C(=O)N3CCN(C[C@H]4CC[C@H](n5cc(NC(=O)c6cnn7ccc(N8C[C@H]9C[C@@H]8CO9)nc67)c(C(F)F)n5)CC4)CC3)ccc2Cl)C(=O)N1` [Example 3, 5-((1R,4R)-2-oxa-5-azabicyclo[2.2.1]heptan-5-yl)-N-(1-((1R,4R)-4-((4-(4-chloro-3-(2,4-dioxotetrahydropyrimidin-1(2H)-yl)benzoyl)piperazin-1-yl)methyl)cyclohexyl)-3-(difluoromethyl)-1H-pyrazol-4-yl)pyrazolo[1,5-a]pyrimidine-3-carboxamide] gave a negative logarithm of the IC50 (pIC50) of 7.17. The same measure, in the same setting: the figure for `O=C1CCN(c2cc(C(=O)N3CCC(C#CCN4CCC(n5cc(NC(=O)c6cnn7ccc(N8C[C@H]9C[C@@H]8CO9)nc67)c(C(F)F)n5)CC4)CC3)ccc2Cl)C(=O)N1` [Example 12, 5-((1R,4R)-2-oxa-5-azabicyclo[2.2.1]heptan-5-yl)-N-(1-(1-(3-(1-(4-chloro-3-(2,4-dioxotetrahydropyrimidin-1(2H)-yl)benzoyl)piperidin-4-yl)prop-2-yn-1-yl)piperidin-4-yl)-3-(difluoromethyl)-1H-pyrazol-4-yl)pyrazolo[1,5-a]pyrimidine-3-carboxamide] is 6.57. Still for that read-out and setting: the figure for `O=C1CCN(c2cc(C(=O)N3CCC(CCCN4CCC(n5cc(NC(=O)c6cnn7ccc(N8C[C@H]9C[C@@H]8CO9)nc67)c(C(F)F)n5)CC4)CC3)ccc2Cl)C(=O)N1` [Example 14, 5-((1R,4R)-2-oxa-5-azabicyclo[2.2.1]heptan-5-yl)-N-(1-(1-(3-(1-(4-chloro-3-(2,4-dioxotetrahydropyrimidin-1(2H)-yl)benzoyl)piperidin-4-yl)propyl)piperidin-4-yl)-3-(difluoromethyl)-1H-pyrazol-4-yl)pyrazolo[1,5-a]pyrimidine-3-carboxamide] is 6.91; for `O=C1CCN(c2ccc(C(=O)N3CCC4(CCC(CN5CCC(n6cc(NC(=O)c7cnn8ccc(N9CCOCC9)nc78)c(C(F)F)n6)CC5)CC4)CC3)cc2)C(=O)N1` [Example 27, N-(3-(difluoromethyl)-1-(1-((3-(4-(2,4-dioxotetrahydropyrimidin-1(2H)-yl)benzoyl)-3-azaspiro[5.5]undecan-9-yl)methyl)piperidin-4-yl)-1H-pyrazol-4-yl)-5-morpholinopyrazolo[1,5-a]pyrimidine-3-carboxamide] it is 7.87; for `CN(CC1CCN(C(=O)c2ccc(Cl)c(N3CCC(=O)NC3=O)c2)CC1)C[C@H]1CC[C@H](n2cc(NC(=O)c3cnn4ccc(N5C[C@H]6C[C@@H]5CO6)nc34)c(C(F)F)n2)CC1` [Example 4, 5-((1R,4R)-2-oxa-5-azabicyclo[2.2.1]heptan-5-yl)-N-(1-((1R,4R)-4-((((1-(4-chloro-3-(2,4-dioxotetrahydropyrimidin-1(2H)-yl)benzoyl)piperidin-4-yl)methyl)(methyl)amino)methyl)cyclohexyl)-3-(difluoromethyl)-1H-pyrazol-4-yl)pyrazolo[1,5-a]pyrimidine-3-carboxamide] it is 7.43.

The target of a further assay is IRAK4 protein in THP-1 cells (Homo sapiens (Human), UniProt Q9NWZ3). The experiment in a line: Degradation of IRAK4 in THP-1 cells, human IRAK4 AlphaLISA assay. Format: cell-based. As to conditions: 24 h incubation. The method, then:
THP-1 cells (Stem Cell Bank, Chinese Academy of Sciences) were inoculated onto a 24-well cell culture plate at 0.95 mL/well, with a cell density of 5×10^5 cells/well. The cell plate was incubated overnight in a 37° C., 5% carbon dioxide incubator, and 50 μL of a solution of a compound in dimethyl sulfoxide was added, such that the final concentration of the compound fell within the range of 0.03-3000 nM. After another 24 h of incubation, cells were collected into 1.5 mL centrifuge tubes and centrifuged at 1000 rpm at 4° C. for 5 min. The cell pellets were washed twice with 1×DPBS. The resuspended cells were lysed with 200 μL of lysis buffer (Western and IP cell lysis buffer (Beyotime), supplemented with 1 mM phenylmethylsulfonyl fluoride and protease inhibitor cocktail (Beyotime)), left to stand on ice for 30 mini, and then centrifuged at 14,000 g at 4° C. for 10 min. The supernatant samples were assayed by Western Blot for IRAK4 protein levels.
The above cell lysates were also tested for IRAK4 degradation using a human IRAK4 AlphaLISA assay kit (PerkinElmer, AL3117C). The method is specifically as follows: 2-μL test samples of cell lysate supernatant were transferred to a white 384-well plate (PerkinElmer, 6007299), and 4 μL of 5× anti-IRAK4 receptor beads (PerkinElmer, final concentration of 10 μg/mL) was then added. The plate was incubated at 23° C. for 30 min. Then 4 μL of 5× biotin-labeled anti-IRAK4 antibody (PerkinElmer, final concentration of 1 nM) was added, and the plate was incubated at 23° C. for 60 min. Finally, 10 μL of 2′ streptavidin-labeled donor beads (final concentration of 40 μg/mL) was added to each well, and the plate was incubated in the dark at 23° C. for 30 min. After the incubation was complete, AlphaLISA signal values were measured on a microplate reader EnVision (PerkinElmer, 2105) in the AlphaScreen standard mode, and IRAK4 concentrations were calculated from these signal values. Then a non-linear curve fitting of logarithmic concentration-inhibition rate was performed using GraphPad Prism 7, and the DC50 and Dmax values of the compound were obtained.
On the technique in general: Bead proximity is the source of the signal in Alpha formats.
What is called DC50 is the midpoint of the concentration-degradation curve. Low values mean degradation at low concentration, high ones degradation only at high concentration. The Dmax is the greatest extent of degradation seen. In turn, `O=C1CCN(c2cc(C(=O)N3CCC4(CCC(CN5CCC(n6cc(NC(=O)c7cnn8ccc(N9CCOCC9)nc78)c(C(F)F)n6)CC5)CC4)CC3)ccc2OC(F)(F)F)C(=O)N1` [Example 52, N-(3-(difluoromethyl)-1-(1-((3-(3-(2,4-dioxotetrahydropyrimidin-1(2H)-yl)-4-(trifluoromethoxy)benzoyl)-3-azaspiro[5.5]undecan-9-yl)methyl)piperidin-4-yl)-1H-pyrazol-4-yl)-5-morpholinopyrazolo[1,5-a]pyrimidine-3-carboxamide] yielded a DC50 of 18.4 nM and a Dmax of 95.4%. The corresponding values for `CN(CCC1CCN(C(=O)c2ccc(Cl)c(N3CCC(=O)NC3=O)c2)CC1)C[C@H]1CC[C@H](n2cc(NC(=O)c3cnn4ccc(N5CCOCC5)nc34)c(C(F)F)n2)CC1` [Example 30, N-(1-((1R,4R)-4-(((2-(1-(4-chloro-3-(2,4-dioxotetrahydropyrimidin-1(2H)-yl)benzoyl)piperidin-4-yl)ethyl)(methyl)amino)methyl)cyclohexyl)-3-(difluoromethyl)-1H-pyrazol-4-yl)-5-morpholinopyrazolo[1,5-a]pyrimidine-3-carboxamide] are 5.23 nM and 90.1%. For `CN(CCC1CCN(C(=O)c2ccc(Cl)c(N3CCC(=O)NC3=O)c2)CC1)C[C@H]1CC[C@H](n2cc(NC(=O)c3cnn4ccc(N5CC6CCC(C5)O6)nc34)c(C(F)F)n2)CC1` [Example 31, 5-(8-oxa-3-azabicyclo[3.2.1]octan-3-yl)-N-(1-((1R,4R)-4-(((2-(1-(4-chloro-3-(2,4-dioxotetrahydropyrimidin-1(2H)-yl)benzoyl)piperidin-4-yl)ethyl)(methyl)amino)methyl)cyclohexyl)-3-(difluoromethyl)-1H-pyrazol-4-yl)pyrazolo[1,5-a]pyrimidine-3-carboxamide], in that order: 6.1 nM and 91.1%. For `COc1ccc(C(=O)N2CCC(CCN(C)C[C@H]3CC[C@H](n4cc(NC(=O)c5cnn6ccc(N7CCC[C@H](O)C7)nc56)c(C(F)F)n4)CC3)CC2)cc1N1CCC(=O)NC1=O` [Example 35, N-(3-(difluoromethyl)-1-((1R,4S)-4-(((2-(1-(3-(2,4-dioxotetrahydropyrimidin-1(2H)-yl)-4-methoxybenzoyl)piperidin-4-yl)ethyl)(methyl)amino)methyl)cyclohexyl)-1H-pyrazol-4-yl)-5-((S)-3-hydroxypiperidin-1-yl)pyrazolo[1,5-a]pyrimidine-3-carboxamide], in that order: 0.78 nM and 100%.

`CN(CCC1CCN(C(=O)c2ccc(Cl)c(N3CCC(=O)NC3=O)c2)CC1)C[C@]1(O)CC[C@@H](n2cc(NC(=O)c3cnn4ccc(N5C[C@H]6C[C@@H]5CO6)nc34)c(C(F)F)n2)CC1` [Example 65, 5-((1R,4R)-2-oxa-5-azabicyclo[2.2.1]heptan-5-yl)-N-(1-((1S,4S)-4-(((2-(1-(4-chloro-3-(2,4-dioxotetrahydropyrimidin-1(2H)-yl)benzoyl)piperidin-4-yl)ethyl)(methyl)amino)methyl)-4-hydroxycyclohexyl)-3-(difluoromethyl)-1H-pyrazol-4-yl)pyrazolo[1,5-a]pyrimidine-3-carboxamide]: it took 14.3 nM to reach half-maximal degradation (DC50) and the Dmax is 87.2%.

The record behind these values is patent publication US20240368194A1, “IRAK4 DEGRADATION AGENT, AND PREPARATION METHOD THEREFOR AND USE THEREOF” (SHANGHAI LEADINGTAC PHARMACEUTICAL CO. LTD., priority 2021, published 2024).
